Here are results for 26 compounds from patent US9975903B2, “Condensed heterocyclic compound” (Takeda Pharmaceutical Company Limited, priority 2014, dated 2018).

The target of one assay is T1, Human recombinant enteropeptidase (Homo sapiens, UniProt P98073).
T1 construct: purchased ITSI-Biosciences LLC #REN-260
T1 sequence (P98073 whole entry): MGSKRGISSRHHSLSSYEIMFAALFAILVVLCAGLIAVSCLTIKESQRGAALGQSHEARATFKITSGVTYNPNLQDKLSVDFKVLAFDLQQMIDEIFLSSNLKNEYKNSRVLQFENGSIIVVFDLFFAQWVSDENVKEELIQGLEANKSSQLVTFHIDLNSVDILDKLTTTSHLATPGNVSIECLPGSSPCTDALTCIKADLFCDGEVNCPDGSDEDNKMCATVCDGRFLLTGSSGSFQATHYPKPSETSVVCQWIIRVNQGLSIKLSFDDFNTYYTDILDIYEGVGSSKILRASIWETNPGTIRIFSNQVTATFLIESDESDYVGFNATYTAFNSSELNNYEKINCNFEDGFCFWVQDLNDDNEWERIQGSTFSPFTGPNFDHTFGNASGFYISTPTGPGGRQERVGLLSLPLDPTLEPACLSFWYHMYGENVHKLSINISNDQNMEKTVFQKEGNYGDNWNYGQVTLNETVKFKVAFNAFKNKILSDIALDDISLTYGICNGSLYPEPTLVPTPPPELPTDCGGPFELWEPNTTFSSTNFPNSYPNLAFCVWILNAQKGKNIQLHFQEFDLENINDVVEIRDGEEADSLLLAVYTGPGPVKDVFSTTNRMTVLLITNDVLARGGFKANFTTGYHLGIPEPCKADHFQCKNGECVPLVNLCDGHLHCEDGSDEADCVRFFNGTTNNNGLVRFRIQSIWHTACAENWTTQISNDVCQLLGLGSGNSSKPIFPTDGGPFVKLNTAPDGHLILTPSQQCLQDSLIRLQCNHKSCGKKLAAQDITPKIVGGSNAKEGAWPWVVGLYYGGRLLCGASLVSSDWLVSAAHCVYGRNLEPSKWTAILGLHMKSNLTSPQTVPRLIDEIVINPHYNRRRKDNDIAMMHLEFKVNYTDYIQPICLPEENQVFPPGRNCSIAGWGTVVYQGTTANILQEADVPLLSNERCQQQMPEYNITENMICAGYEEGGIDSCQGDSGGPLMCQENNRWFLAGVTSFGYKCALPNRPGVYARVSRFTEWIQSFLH
Nature of the assay: Human enteropeptidase inhibitory activity (Test Example 1). The note with it: 3.3 μM test compound; inhibition rate from fluorescence intensity at 2 hours after the start of the reaction. Format: biochemical. The method, then:
Human recombinant enteropeptidase (#REN-260, ITSI-Biosciences LLC) was diluted with an assay buffer (50 mM Tricine, pH 8.0, 0.01 (w/v) %, Tween 20, 10 mM CaCl2) to prepare a 24 mU/mL enzyme solution. Subsequently, 5FAM-Abu-Gly-Asp-Asp-Asp-Lys-Ile-Val-Gly-Gly-Lys(CPQ2)-Lys-Lys-NH2 (SEQ ID NO: 1, purity: 97.2%, CPC Scientific Inc.) was diluted with the assay buffer to prepare a 2.1 μM substrate solution. A test compound is dissolved in DMSO into a 1 mM solution, and the solution was diluted by 100-fold with the assay buffer to give a compound solution. To a 384-well black plate (#784076, Greiner Bio-One), 5 μL of the compound solution and 5 μL of the substrate solution were added and mixed, and 5 μL of the enzyme solution was then added to the mixture, followed by mixing to start the reaction. The fluorescence intensity was measured with a fluorescence plate reader EnVision (The Perkin-Elmer Corp.) at an excitation wavelength of 485 nm and a fluorescence wavelength of 535 nm. The same reaction as above except that the test compound was not contained was performed (test compound non-addition group). Furthermore, the same reaction as above except that the test compound and the enzyme were not contained was performed (control group). The inhibition rate was calculated using the fluorescence intensity at 2 hours after the start of the reaction by the following expression: Inhibition rate (%)=(1−((fluorescence intensity of test compound addition group)−(fluorescence intensity of control group))/((fluorescence intensity of test compound non-addition group)−(fluorescence intensity of control group)))×100
As to “4-((((10- carbamimidamido- 13-oxo-6,7,8,13- tetrahydro- dibenzo[b,f] [1,4]dioxecin-4- yl)carbonyl) carboxymethyl) amino)methyl) thiophene-2- carboxylic acid [Example 125]”, the “3.3 μM Inhibition” value was 100%.

The assay is the same for the next values; noted with them: 3.3 μM test compound; inhibition rate from fluorescence intensity at 2 hours after the start of the reaction; read-out: 3.3 μM Inhibition.
For `N=C(N)Nc1ccc2c(c1)CCCOc1cc(CCC(=O)N[C@@H](CC(=O)O)C(=O)O)ccc1OC2=O` [Example 49, N-(3-(10-carbamimidamido-13-oxo-6,7,8,13-tetrahydro-dibenzo[b,f] [1,4]dioxecin-3-yl)propanoyl)-aspartic acid], the inhibition at 3.3 µM was 100%.

On to `C[C@@H](O)[C@H](NC(=O)c1cccc2c1OCCCc1cc(NC(=N)N)ccc1C(=O)O2)C(=O)O` [Example 90, N-((10-carbamimidamido-13-oxo-6,7,8,13-tetrahydro-dibenzo[b,f] [1,4]dioxecin-4-yl)carbonyl)-L-threonine], for which the inhibition at 3.3 µM turned out to be 101%.

For `COC(=O)[C@H](CS(=O)(=O)O)NC(=O)c1cccc2c1OCCCc1cc(NC(=N)N)ccc1C(=O)O2` [Example 7, 10-carbamimidamido-4-(((2R)-1-methoxy-1-oxo-3-sulfopropan-2-yl)carbamoyl)-13-oxo-6,7,8,13-tetrahydro-dibenzo[b,f] [1,4]dioxecine], the inhibition at 3.3 µM worked out at 102%.

Regarding `N=C(N)Nc1ccc2c(c1)CCCOc1c(ccc(CCC(=O)O)c1C(=O)N(CC(=O)O)CC(=O)O)OC2=O` [Example 119, 3-(4-(Bis(carboxymethyl)carbamoyl)-10-carbamimidamido-13-oxo-6,7,8,13-tetrahydrodibenzo[b,f][1,4]dioxecin-3-yl)propanoic acid], the inhibition at 3.3 µM stood at 101%.

As to `N=C(N)Nc1ccc2c(c1)CCCOc1c(cccc1C(=O)N(CC(=O)O)CC(=O)N(CC(=O)O)CC(=O)O)OC2=O` [Example 115, ((2-(Bis(carboxymethyl)amino)-2-oxoethyl) ((10-carbamimidamido-13-oxo-6,7,8,13-tetrahydrodibenzo[b,f][1,4]dioxecin-4-yl)carbonyl)amino)acetic acid], the inhibition at 3.3 µM came to 99%.

Consider `N=C(N)Nc1ccc2c(c1)CCCCc1c(OCC(=O)N[C@@H](CC(=O)O)C(=O)O)cccc1OC2=O` [Example 31, N-(((3-carbamimidamido-14-oxo-5,7,8,14-tetrahydro-6H-dibenzo[b,h]oxecin-9-yl)oxy)acetyl)-L-aspartic acid], for which the inhibition at 3.3 µM came to 101%.

With `N=C(N)Nc1ccc2c(c1)CCCOc1c(cccc1C(=O)N[C@@H](CC(=O)O)C(=O)O)OC2=O` [Example 1, N-((10-Carbamimidamido-13-oxo-6,7,8,13-tetrahydrodibenzo[b,f][1,4]dioxecin-4-yl)carbonyl)-L-aspartic acid], the inhibition at 3.3 µM is 101%.

Turning to `N=C(N)Nc1ccc2c(c1)CCCOc1c(cccc1C(=O)N(CC(=O)O)Cc1cc(C(=O)O)cc(C(=O)O)c1)OC2=O` [Example 146, 5-((((10-carbamimidamido-13-oxo-6,7,8,13-tetrahydro-dibenzo[b,f] [1,4]dioxecin-4-yl)carbonyl)-(carboxy-methyl)-amino)methyl) isophthalic acid], the inhibition at 3.3 µM came out at 102%.

As to `N=C(N)Nc1ccc2c(c1)CCCOc1c(cccc1C(=O)N1CCC[C@H]1C(=O)N[C@@H](CC(=O)O)C(=O)O)OC2=O` [Example 99, 1-((10-Carbamimidamido-13-oxo-6,7,8,13-tetrahydrodibenzo[b,f][1,4]dioxecin-4-yl)carbonyl)-L-prolyl-L-aspartic acid], the inhibition at 3.3 µM worked out at 100%.

With `N=C(N)Nc1ccc2c(c1)CCCOc1c(ccc(CCC(=O)NC(CC(=O)O)CC(=O)O)c1C(=O)O)OC2=O` [Example 131, 3-((3-(10-carbamimidamido-4-carboxy-13-oxo-6,7,8,13-tetrahydro-dibenzo[b,f] [1,4]dioxecin-3-yl)propanoyl)amino) pentanedioic acid], the inhibition at 3.3 µM was determined as 100%.

Turning to `N=C(N)Nc1ccc2c(c1)CCCOc1c(cccc1C(=O)N(Cc1ccc(C(=O)O)cc1)C(CC(=O)O)CC(=O)O)OC2=O` [Example 147, 3-(((10-carbamimidamido-13-oxo-6,7,8,13-tetrahydro-dibenzo[b,f] [1,4]dioxecin-4-yl)carbonyl)(4-carboxybenzyl)amino)penta-nedioic acid], the inhibition at 3.3 µM amounted to 100%.

In the case of `CN(C(=O)CCc1cccc2c1OCCCc1cc(NC(=N)N)ccc1C(=O)O2)[C@@H](CC(=O)O)C(=O)O` [Example 102, N-(3-(10-carbamimidamido-13-oxo-6,7,8,13-tetrahydro-dibenzo[b,f] [1,4]dioxecin-4-yl)propanoyl)-N-methyl-L-aspartic acid], the inhibition at 3.3 µM amounted to 101%.

Turning to `N=C(N)Nc1ccc2c(c1)CCCCc1c(cccc1C(=O)NCCS(=O)(=O)O)OC2=O` [Example 33, 2-(((3-carbamimidamido-14-oxo-5,7,8,14-tetrahydro-6H-dibenzo[b,h]oxecin-9-yl)carbonyl)amino) ethanesulfonic acid], the inhibition at 3.3 µM stood at 98%.

In the case of `N=C(N)Nc1ccc2c(c1)OCCCc1c(CCC(=O)N[C@@H](CC(=O)O)C(=O)O)cccc1OC2=O` [Example 79, N-(3-(3-Carbamimidamido-14-oxo-7,8-dihydro-6H,14H-dibenzo[b,f][1,5]dioxecin-9-yl)propanoyl)-L-aspartic acid], the inhibition at 3.3 µM worked out at 101%.

For `CC1CCCc2cc(NC(=N)N)ccc2C(=O)Oc2cccc(C(=O)N[C@@H](CC(=O)O)C(=O)O)c21` (stereo partly drawn) [Example 21, N-((3-carbamimidamido-8-methyl-14-oxo-5,7,8,14-tetrahydro-6H-dibenzo[b,h]oxecin-9-yl)carbonyl)-L-aspartic acid], the inhibition at 3.3 µM came to 102%.

In the case of `N=C(N)Nc1ccc2c(c1)CCc1cccc(CCC(=O)N[C@@H](CC(=O)O)C(=O)O)c1OC2=O` [Example 54, N-(3-(9-carbamimidamido-6-oxo-11,12-dihydro-6H-dibenzo[b,f]oxocin-4-yl)propanoyl)-L-aspartic acid], the inhibition at 3.3 µM was determined as 89%.

On to `N=C(N)Nc1ccc2c(c1)CCCOc1c(ccc(CCC(=O)O)c1C(=O)O)OC2=O` [Example 111, 10-carbamimidamido-3-(2-carboxyethyl)-13-oxo-6,7,8,13-tetrahydro-dibenzo[b,f] [1,4]dioxecine-4-carboxylic acid], for which the inhibition at 3.3 µM amounted to 100%.

In the case of `N=C(N)Nc1ccc2c(c1)CCCCc1c(cccc1C(=O)N(CC(=O)O)Cc1cccc(C(=O)O)c1)OC2=O` [Example 128], the inhibition at 3.3 µM worked out at 100%.

With `COCCN(C(=O)c1cccc2c1OCCCc1cc(NC(=N)N)ccc1C(=O)O2)[C@@H](CC(=O)O)C(=O)O` [Example 109, N-((10-carbamimidamido-13-oxo-6,7,8,13-tetrahydro-dibenzo[b,f] [1,4]dioxecin-4-yl)carbonyl)-N-(2-methoxyethyl)-L-aspartic acid], the inhibition at 3.3 µM came to 100%.

As for `N=C(N)Nc1ccc2c(c1)CCCOc1c(cc(CCC(=O)O)cc1C(=O)N[C@@H](CC(=O)O)C(=O)O)OC2=O` [Example 117, N-((10-carbamimidamido-2-(2-carboxyethyl)-13-oxo-6,7,8,13-tetrahydro-dibenzo[b,f] [1,4]dioxecin-4-yl)carbonyl)-L-aspartic acid], the inhibition at 3.3 µM is 100%.

Consider `N=C(N)Nc1ccc2c(c1)CCCOc1c(ccc(CCC(=O)O)c1C(=O)N[C@@H](CC(=O)O)C(=O)O)OC2=O` [Example 110, N-((10-Carbamimidamido-3-(2-carboxyethyl)-13-oxo-6,7,8,13-tetrahydrodibenzo[b,f][1,4]dioxecin-4-yl)carbonyl)-L-aspartic acid], for which the inhibition at 3.3 µM was 100%.

Regarding `N=C(N)Nc1ccc2c(c1)CCCOc1c(CCC(=O)N[C@@H](CC(=O)O)C(=O)O)cccc1OC2=O` [Example 47, N-(3-(10-Carbamimidamido-13-oxo-6,7,8,13-tetrahydrodibenzo[b,f][1,4]dioxecin-4-yl)propanoyl)aspartic acid], the inhibition at 3.3 µM was 101%.

In the case of `N=C(N)Nc1ccc2c(c1)CCCCCc1c(cccc1C(=O)N[C@@H](CC(=O)O)C(=O)O)OC2=O` [Example 76, N-((3-Carbamimidamido-15-oxo-5,6,7,8,9,15-hexahydrodibenzo[b,i]hexacycloundecin-10-yl)carbonyl)-L-aspartic acid], the inhibition at 3.3 µM is 101%.

Consider `C[C@@H]1CCc2cc(NC(=N)N)ccc2C(=O)Oc2cccc(C(=O)N[C@@H](CC(=O)O)C(=O)O)c2C1` [Example 20, N-((3-carbamimidamido-7-methyl-14-oxo-6,7,8,14-tetrahydro-6H-dibenzo[b,h]oxecin-9-yl)carbonyl)-L-aspartic acid], for which the inhibition at 3.3 µM amounted to 102%.

For `N=C(N)Nc1ccc2c(c1)CCCOc1c(cccc1C(=O)N(Cc1cccc(C(=O)O)c1)C(CC(=O)O)CC(=O)O)OC2=O` [Example 144, 3-(((10-Carbamimidamido-13-oxo-6,7,8,13-tetrahydrodibenzo[b,f][1,4]dioxecin-4-yl)carbonyl) (3-carboxybenzyl)amino)pentanedioic acid], the inhibition at 3.3 µM was 99%.

One may read the inhibition as the drop in the measured response relative to a control, in per cent.
